Test results as given in BigSolDB 2.1.

## O=C1NC23NC(=O)NC2(N1)C(=O)NC3=O (stereo not given)
In 1,4-dioxane, 273.15 K
  solubility (mole fraction): 0.000149
In 1,4-dioxane, 278.15 K
  solubility (mole fraction): 0.000174
In 1,4-dioxane, 283.15 K
  solubility (mole fraction): 0.000214
In 1,4-dioxane, 288.15 K
  solubility (mole fraction): 0.000267
In 1,4-dioxane, 293.15 K
  solubility (mole fraction): 0.000333
In 1,4-dioxane, 298.15 K
  solubility (mole fraction): 0.000453
In 1,4-dioxane, 303.15 K
  solubility (mole fraction): 0.000601
In 1,4-dioxane, 308.15 K
  solubility (mole fraction): 0.000696
In 1,4-dioxane, 313.15 K
  solubility (mole fraction): 0.000856
In 1,4-dioxane, 318.15 K
  solubility (mole fraction): 0.00102
In THF, 273.15 K
  solubility (mole fraction): 0.000553
In THF, 278.15 K
  solubility (mole fraction): 0.000655
In THF, 283.15 K
  solubility (mole fraction): 0.000783
In THF, 288.15 K
  solubility (mole fraction): 0.000992
In THF, 293.15 K
  solubility (mole fraction): 0.00121
In THF, 298.15 K
  solubility (mole fraction): 0.00151
In THF, 303.15 K
  solubility (mole fraction): 0.00192
In THF, 308.15 K
  solubility (mole fraction): 0.00224
In THF, 313.15 K
  solubility (mole fraction): 0.00274
In THF, 318.15 K
  solubility (mole fraction): 0.00325
In acetone, 273.15 K
  solubility (mole fraction): 5.58e-05
In acetone, 278.15 K
  solubility (mole fraction): 6.73e-05
In acetone, 283.15 K
  solubility (mole fraction): 7.84e-05
In acetone, 288.15 K
  solubility (mole fraction): 9.4e-05
In acetone, 293.15 K
  solubility (mole fraction): 0.000114
In acetone, 298.15 K
  solubility (mole fraction): 0.000131
In acetone, 303.15 K
  solubility (mole fraction): 0.000158
In acetone, 308.15 K
  solubility (mole fraction): 0.00018
In acetone, 313.15 K
  solubility (mole fraction): 0.000202
In acetone, 318.15 K
  solubility (mole fraction): 0.000246
In acetonitrile, 273.15 K
  solubility (mole fraction): 9e-06
In acetonitrile, 278.15 K
  solubility (mole fraction): 1.15e-05
In acetonitrile, 283.15 K
  solubility (mole fraction): 1.43e-05
In acetonitrile, 288.15 K
  solubility (mole fraction): 1.72e-05
In acetonitrile, 293.15 K
  solubility (mole fraction): 2.16e-05
In acetonitrile, 298.15 K
  solubility (mole fraction): 2.75e-05
In acetonitrile, 303.15 K
  solubility (mole fraction): 3.6e-05
In acetonitrile, 308.15 K
  solubility (mole fraction): 4.4e-05
In acetonitrile, 313.15 K
  solubility (mole fraction): 5.5e-05
In acetonitrile, 318.15 K
  solubility (mole fraction): 6.79e-05
In ethanol, 273.15 K
  solubility (mole fraction): 6.15e-05
In ethanol, 278.15 K
  solubility (mole fraction): 7.48e-05
In ethanol, 283.15 K
  solubility (mole fraction): 9.23e-05
In ethanol, 288.15 K
  solubility (mole fraction): 0.000113
In ethanol, 293.15 K
  solubility (mole fraction): 0.000136
In ethanol, 298.15 K
  solubility (mole fraction): 0.00017
In ethanol, 303.15 K
  solubility (mole fraction): 0.000214
In ethanol, 308.15 K
  solubility (mole fraction): 0.000264
In ethanol, 313.15 K
  solubility (mole fraction): 0.000322
In ethanol, 318.15 K
  solubility (mole fraction): 0.000419
In ethyl acetate, 273.15 K
  solubility (mole fraction): 2.59e-05
In ethyl acetate, 278.15 K
  solubility (mole fraction): 3.38e-05
In ethyl acetate, 283.15 K
  solubility (mole fraction): 4.59e-05
In ethyl acetate, 288.15 K
  solubility (mole fraction): 6.9e-05
In ethyl acetate, 293.15 K
  solubility (mole fraction): 9.2e-05
In ethyl acetate, 298.15 K
  solubility (mole fraction): 0.000124
In ethyl acetate, 303.15 K
  solubility (mole fraction): 0.000167
In ethyl acetate, 308.15 K
  solubility (mole fraction): 0.000225
In ethyl acetate, 313.15 K
  solubility (mole fraction): 0.000322
In ethyl acetate, 318.15 K
  solubility (mole fraction): 0.000413
In ethylene glycol, 273.15 K
  solubility (mole fraction): 0.00029
In ethylene glycol, 278.15 K
  solubility (mole fraction): 0.000326
In ethylene glycol, 283.15 K
  solubility (mole fraction): 0.00036
In ethylene glycol, 288.15 K
  solubility (mole fraction): 0.000404
In ethylene glycol, 293.15 K
  solubility (mole fraction): 0.000459
In ethylene glycol, 298.15 K
  solubility (mole fraction): 0.000516
In ethylene glycol, 303.15 K
  solubility (mole fraction): 0.000587
In ethylene glycol, 308.15 K
  solubility (mole fraction): 0.000638
In ethylene glycol, 313.15 K
  solubility (mole fraction): 0.00073
In ethylene glycol, 318.15 K
  solubility (mole fraction): 0.000822
In isopropanol, 273.15 K
  solubility (mole fraction): 0.000113
In isopropanol, 278.15 K
  solubility (mole fraction): 0.000133
In isopropanol, 283.15 K
  solubility (mole fraction): 0.000162
In isopropanol, 288.15 K
  solubility (mole fraction): 0.000192
In isopropanol, 293.15 K
  solubility (mole fraction): 0.000234
In isopropanol, 298.15 K
  solubility (mole fraction): 0.000284
In isopropanol, 303.15 K
  solubility (mole fraction): 0.000364
In isopropanol, 308.15 K
  solubility (mole fraction): 0.000482
In isopropanol, 313.15 K
  solubility (mole fraction): 0.000526
In isopropanol, 318.15 K
  solubility (mole fraction): 0.000614
In methanol, 273.15 K
  solubility (mole fraction): 0.00161
In methanol, 278.15 K
  solubility (mole fraction): 0.00184
In methanol, 283.15 K
  solubility (mole fraction): 0.00243
In methanol, 288.15 K
  solubility (mole fraction): 0.00286
In methanol, 293.15 K
  solubility (mole fraction): 0.00348
In methanol, 298.15 K
  solubility (mole fraction): 0.00409
In methanol, 303.15 K
  solubility (mole fraction): 0.0049
In methanol, 308.15 K
  solubility (mole fraction): 0.00592
In methanol, 313.15 K
  solubility (mole fraction): 0.00727
In methanol, 318.15 K
  solubility (mole fraction): 0.00843
In n-propanol, 273.15 K
  solubility (mole fraction): 2.56e-05
In n-propanol, 278.15 K
  solubility (mole fraction): 3.13e-05
In n-propanol, 283.15 K
  solubility (mole fraction): 3.83e-05
In n-propanol, 288.15 K
  solubility (mole fraction): 4.65e-05
In n-propanol, 293.15 K
  solubility (mole fraction): 6.12e-05
In n-propanol, 298.15 K
  solubility (mole fraction): 8.12e-05
In n-propanol, 303.15 K
  solubility (mole fraction): 0.000103
In n-propanol, 308.15 K
  solubility (mole fraction): 0.000122
In n-propanol, 313.15 K
  solubility (mole fraction): 0.000151
In n-propanol, 318.15 K
  solubility (mole fraction): 0.00019
In toluene, 273.15 K
  solubility (mole fraction): 3.2e-06
In toluene, 278.15 K
  solubility (mole fraction): 4.3e-06
In toluene, 283.15 K
  solubility (mole fraction): 5.4e-06
In toluene, 288.15 K
  solubility (mole fraction): 6.1e-06
In toluene, 293.15 K
  solubility (mole fraction): 8.4e-06
In toluene, 298.15 K
  solubility (mole fraction): 1.05e-05
In toluene, 303.15 K
  solubility (mole fraction): 1.28e-05
In toluene, 308.15 K
  solubility (mole fraction): 1.5e-05
In toluene, 313.15 K
  solubility (mole fraction): 1.95e-05
In toluene, 318.15 K
  solubility (mole fraction): 2.6e-05
In water, 273.15 K
  solubility (mole fraction): 5.92e-05
In water, 278.15 K
  solubility (mole fraction): 7.18e-05
In water, 283.15 K
  solubility (mole fraction): 9.34e-05
In water, 288.15 K
  solubility (mole fraction): 0.000126
In water, 293.15 K
  solubility (mole fraction): 0.000159
In water, 298.15 K
  solubility (mole fraction): 0.000188
In water, 303.15 K
  solubility (mole fraction): 0.000223
In water, 308.15 K
  solubility (mole fraction): 0.00025
In water, 313.15 K
  solubility (mole fraction): 0.000313
In water, 318.15 K
  solubility (mole fraction): 0.000369
